Assay results reported in paper PMC6273431, “The Structure–Antimicrobial Activity Relationships of a Promising Class of the Compounds Containing the N-Arylpiperazine Scaffold” (Molecules, 2016).
Read-outs that look alike come from different tables or passages of the source.

Key:
[1] = set-up: method as in PMID 16209439, PMID 16209439, doi:10.2478/s11696-006-0007-y; conditions: octan-1-ol/phosphate buffer (pH = 7.4); cited from earlier work
M. marinum CAMP 5644 = experiment: antimycobacterial MIC, broth dilution micromethod; format: cell-based; conditions: Mycobacterium marinum, CAMP5644, 504 h, 21 days at 28 °C
M. kansasii DSM 44162 = experiment: antimycobacterial MIC, broth dilution micromethod; format: cell-based; conditions: Mycobacterium kansasii, DSM44162, 168 h, 7 days at 37 °C
[2] = tested on: Mycobacterium avium subsp. paratuberculosis CIT03; experiment: antimycobacterial MIC, MB broth, alamarBlue; format: cell-based; conditions: 264 h, read-out: MIC MAP
Protocol: The Mycobacterium avium subsp. paratuberculosis CIT03 strain was grown in the Middlebrook (MB) broth, supplemented with the Oleic-Albumin-Dextrose-Catalase Supplement (OADC, Becton Dickinson, Oxford, UK) and the mycobactin J (2 μg/mL). The commercially available siderophore mycobactin J reduced the incubation period of M. avium subsp. paratuberculosis in a complex medium when compared to the medium containing the mycobactin P as a growth factor.
The identification of the isolate was performed using biochemical and molecular protocols. At a log phase growth, a culture sample (10 mL) was centrifuged at 15,000 rpm/20 min using a bench top centrifuge (Model CR 4-12, Jouan Inc., London, UK). Following removal of the supernatant, the pellet was washed in fresh Middlebrook 7H9GC broth and re-suspended in fresh supplemented MB broth (10 mL). The turbidity was adjusted to match the McFarland standard No. 1 containing approximately 3.0 × 10^8 Colony Forming Units (CFU) with the MB broth. Further 1:20 dilution of the culture was performed in the MB broth. The susceptibility of given mycobacterial species was investigated in a 96-well plate format. In those experiments, sterile deionised water (300 μL) was added to all outer-perimeter wells of the plates to minimize an evaporation of the medium in the test wells during the incubation process. Each evaluated compound (100 μL) was incubated with the mycobacterial species (100 μL). The dilutions of a particular compound were prepared in triplicate. For all inspected derivatives, final concentrations ranged from 1000 μg/mL to 60 μg/mL. All compounds were prepared in dimethyl sulfoxide (DMSO; Sigma-Aldrich, Irvine, UK) and subsequent dilutions were made in the supplemented MB broth. The plates were sealed with a parafilm and incubated at 37 °C for 11 days. Following the incubation, a 10% addition of a water‑soluble dye, the alamarBlue reagent (AbD Serotec, Kidlington, UK), was mixed into each well. Absorbance readings at 570 nm and 600 nm were taken, initially for background subtraction and after 24 h re-incubation. The subtraction is necessary for strongly coloured compounds, where the colour may interfere with the interpretation of any colour change. For non-interfering compounds, a blue colour in a well was interpreted as an absence of a growth and a pink colour was scored as a growth.
The minimum inhibitory concentration (MIC) was defined as the lowest concentration of the compound at which no visible bacterial growth was observed. In other words, the MIC was the lowest concentration that prevented a visual colour change from blue to pink. The MIC value has been routinely and widely used in bacterial assays and it has been a standard detection limit according to the Clinical and Laboratory Standards Institute. The clinically used antimycobacterial drugs INH and RIF were applied as the standards.

[3] = tested on: Escherichia coli ATCC 25922; experiment: antibacterial MIC, microtitration broth method; format: cell-based; conditions: 37 °C
Protocol: (§1) Prior to the testing, each strain was transferred into a nutrient agar (Oxoid Limited, Basingstoke, UK), which was enriched with 5% defibrinated bovine blood.
(§2) The MICs were determined by the microtitration broth method in the cation-adjusted Mueller-Hinton broth (Becton Dickinson, Oxford, UK) according to an international interdisciplinary Clinical Laboratory Standard Institute guidelines.
(§3) The checkerboard was inoculated by the bacterial inocula, which were prepared in a phosphate buffered saline solution with the pH = 7.2–7.3 to simulate physiological pH. The final concentration of each inoculum in the final volume of 100 μL in the wells was approximately 7.5 × 10^6 CFU/mL. Drug-free controls, sterility controls and the controls consisted of the broth with DMSO were included. The determination of the results was performed visually after 24 h of static incubation in the darkness at 37 °C in an aerobic atmosphere.
(§4) To ensure reproducibility, each antibacterial MIC assay was performed triplicate on separate occasions.

[4] = tested on: methicillin-resistant Staphylococcus aureus 63718; experiment: antibacterial MIC, microtitration broth method; format: cell-based; conditions: MRSA, 37 °C
Protocol: as §1, §2, §3, §4

[5] = tested on: Staphylococcus aureus ATCC 29213; experiment: antibacterial MIC, microtitration broth method; format: cell-based; conditions: 37 °C
Protocol: as §1, §2, §3, §4

[6] = tested on: Enterococcus faecalis ATCC 29212; experiment: antibacterial MIC, microtitration broth method; format: cell-based; conditions: 37 °C
Protocol: as §1, §2, §3, §4

[7] = tested on: Candida parapsilosis CCM 8260; experiment: candidacidal MIC, microdilution method; format: cell-based; conditions: Lodderomyces parapsilosis, CCM8260, 48 h, 37 °C
Protocol: (§5) In order to provide a look into the potential usefulness of the derivatives 5a–l as the candidates for a development of anti-yeast (candidacidal) agents, they were in vitro tested against Candida albicans CCM 8261 (CA 8261), C. krusei CCM 8271 (CK 8271) and C. parapsilosis CCM 8260 (CP 8260). The yeasts were obtained from the Czech Collection of Microorganisms (Masaryk University, Faculty of Science, Brno, Czech Republic). They were grown and kept on Sabouraud agar (Oxoid Limited, Basingstoke, UK).
(§6) For the screening, the microdilution method according to the Antimicrobial Susceptibility Testing Protocols was applied. The inoculum was prepared from the cultures grown on Sabouraud agar. With the sterile solution of NaCl, the inoculum was prepared to the 0.5 McFarland units using the Densi-La-Meter densitometer (LIAP, Riga, Latvia) and diluted a thousand‑fold with the Roswell Park Memorial Institute (RPMI) 1640 medium (Sigma-Aldrich, Darmstadt, Germany). Prepared suspension was used for an inoculation of microtitre plates. Final concentration in wells ranged from 5.0 × 10^2 CFU/mL to 2.5 × 10^3 CFU/mL. […] For the determination of the MICs, the stock solutions of all the tested compounds were diluted in the microtitre checkerboard to the final concentration varying from 128 μg/mL to 0.125 μg/mL. Drug-free control, sterility control and the control consisted of a medium and DMSO alone were included. Inoculated microtitre plates were incubated for 48 h in the darkness at 37 °C in an aerobic atmosphere. The results were estimated against static light.
(§7) The MIC was defined as the lowest concentration of the tested compound at which no visible growth was observed. To ensure reproducibility of the results, each candidacidal MIC assay was performed triplicate on separate occasions. It was important to note that all the MICs from the in vitro antimicrobial screening were expressed in μg/mL units and were available in Tables S3 and S4 (Supplementary Materials).

[8] = tested on: Candida albicans CCM 8261; experiment: candidacidal MIC, microdilution method; format: cell-based; conditions: Candida albicans, CCM8261, 48 h, 37 °C
Protocol: as §5, §6, §7

Candida krusei CCM 8271 = experiment: candidacidal MIC, microdilution method; format: cell-based; conditions: Pichia kudriavzevii, CCM8271, 48 h, 37 °C
Protocol: as §5, §6, §7

[9] = set-up: method as in PMID 16209439, PMID 16209439; conditions: potentiometric titration; cited from earlier work
M. smegmatis ATCC 700084 = experiment: antimycobacterial MIC, broth dilution micromethod; format: cell-based; conditions: Mycolicibacterium smegmatis, ATCC700084, 72 h, 3 days at 37 °C

| SMILES | log Pexp [1] | MIC (M. marinum CAMP 5644) | MIC (M. marinum CAMP 5644; Table S3) | MIC (M. kansasii DSM 44162) | MIC (M. kansasii DSM 44162; Table S3) | MIC ([2]; 37 °C, 11 days) | MIC [2] | MIC ([3]; ATCC25922, 24 h) | MIC ([3]; ATCC25922, Table S4, 24 h) | MIC ([4]; 24 h) | MIC ([4]; Table S4, 24 h) | MIC ([5]; ATCC29213, 24 h) | MIC ([5]; ATCC29213, Table S4, 24 h) | MIC ([6]; ATCC29212, 24 h) | MIC ([6]; ATCC29212, Table S4, 24 h) | MIC [7] | MIC ([7]; Table S4) | MIC [8] | MIC ([8]; Table S4) | MIC (Candida krusei CCM 8271) | further results |
| --- | --- | --- | --- | --- | --- | --- | --- | --- | --- | --- | --- | --- | --- | --- | --- | --- | --- | --- | --- | --- | --- |
| CCOc1cccc(NC(=O)OCC(O)CN2CCN(c3ccc(F)cc3)CC2)c1.Cl (stereo not drawn) [Compound 5j, 1-[3-(3-ethoxyphenylcarbamoyl)oxy-2-hydroxypropyl]-4-(4-fluorophenyl)piperazin-1-ium chloride] | 3.59 | 141 µM | 64 µg/mL | 17.6 µM | 8 µg/mL | 551 µM | 250 µg/mL | > 564 µM | > 256 µg/mL | > 564 µM | > 256 µg/mL | > 564 µM | > 256 µg/mL | > 564 µM | > 256 µg/mL | > 282 µM | > 128 µg/mL | > 282 µM | > 128 µg/mL | > 282 µM | MIC (Candida krusei CCM 8271; Table S4): > 128 µg/mL; pKa [9]: 6.31; MIC (M. smegmatis ATCC 700084): 282 µM; MIC (M. smegmatis ATCC 700084; Table S3): 128 µg/mL |
| COc1ccc(NC(=O)OCC(O)CN2CCN(c3ccc(F)cc3)CC2)cc1 (stereo not drawn) [Compound 5k] | 3.42 | 582 µM | 256 µg/mL | 291 µM | 128 µg/mL | 2270 µM | 1000 µg/mL | > 582 µM | > 256 µg/mL | > 582 µM | > 256 µg/mL | > 582 µM | > 256 µg/mL | > 582 µM | > 256 µg/mL | > 291 µM | > 128 µg/mL | > 291 µM | > 128 µg/mL | > 291 µM | MIC (Candida krusei CCM 8271; Table S4): > 128 µg/mL; pKa [9]: 7.24; MIC (M. smegmatis ATCC 700084): 582 µM; MIC (M. smegmatis ATCC 700084; Table S3): 256 µg/mL |
| CCOc1ccc(NC(=O)OCC(O)CN2CCN(c3ccc(F)cc3)CC2)cc1 (stereo not drawn) [Compound 5l] | 3.28 | 282 µM | 128 µg/mL | 564 µM | 256 µg/mL | 2200 µM | 1000 µg/mL | > 564 µM | > 256 µg/mL | > 564 µM | > 256 µg/mL | > 564 µM | > 256 µg/mL | > 564 µM | > 256 µg/mL | > 282 µM | > 128 µg/mL | > 282 µM | > 128 µg/mL | > 282 µM | MIC (Candida krusei CCM 8271; Table S4): > 128 µg/mL; pKa [9]: 7.18; MIC (M. smegmatis ATCC 700084): 564 µM; MIC (M. smegmatis ATCC 700084; Table S3): 256 µg/mL |
